We go through 20 compounds from patent US12637471B2, “Heterocyclic compounds, compositions, methods of preparation and uses thereof” (Organon R&D Finland Ltd, priority 2021, dated 2026).

Holding throughout (format): biochemical
For test [1], the target named is T1, Recombinant human AKR1C3 (17β-HSD5) protein (Homo sapiens, UniProt P42330).
T1 construct: made in house; host or cells: E. coli
T1 sequence (P42330 1-323): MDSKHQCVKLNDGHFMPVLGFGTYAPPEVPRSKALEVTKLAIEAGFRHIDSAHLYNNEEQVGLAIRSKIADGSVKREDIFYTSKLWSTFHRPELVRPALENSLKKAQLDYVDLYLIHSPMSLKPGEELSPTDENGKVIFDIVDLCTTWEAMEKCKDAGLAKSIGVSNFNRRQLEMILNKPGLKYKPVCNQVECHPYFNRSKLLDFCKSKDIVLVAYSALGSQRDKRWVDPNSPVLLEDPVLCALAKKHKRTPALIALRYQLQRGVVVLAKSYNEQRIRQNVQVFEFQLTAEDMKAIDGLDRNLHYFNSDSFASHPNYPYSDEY
Put plainly: Inhibition of AKR1C3 (17β-hydroxysteroid dehydrogenase type 5) enzyme, fluorescence assay. Conditions: inhibitor at 500 nM. The gist of the method: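 Percent inhibition at 500 nM compound, derived from substrate conversion; product alcohol measured by fluorescence (ex 420, em 510 nm) against a 1 μM–10 nM standard curve. Reaction: 27 nM recombinant AKR1C3, 1 μM ketone substrate, 1 mM NADPH, phosphate/EDTA buffer pH 7.4, 1% DMSO, RT for 60–120 min.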

The target in test [2] is T2, Recombinant human aldo-keto reductase family 1 member C2 (AKR1C2) protein (Homo sapiens, UniProt P52895).
T2 construct: made in house; host or cells: Sf-9 insect cells (baculovirus)
T2 sequence (P52895 1-323): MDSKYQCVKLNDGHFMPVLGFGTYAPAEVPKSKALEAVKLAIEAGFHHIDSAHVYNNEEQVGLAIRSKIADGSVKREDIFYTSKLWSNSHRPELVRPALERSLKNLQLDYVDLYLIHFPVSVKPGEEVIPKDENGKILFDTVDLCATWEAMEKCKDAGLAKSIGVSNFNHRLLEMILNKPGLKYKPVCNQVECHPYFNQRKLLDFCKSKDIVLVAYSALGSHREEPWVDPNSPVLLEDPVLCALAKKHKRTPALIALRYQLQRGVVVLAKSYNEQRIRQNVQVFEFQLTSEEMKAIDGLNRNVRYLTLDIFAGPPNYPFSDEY
Description: Inhibition of the aldo-keto reductase family 1 member C2, 3H-dihydrotestosterone conversion. To be noted: inhibitor at 10 μM. The gist of the method:
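Single-point screen at 10 μM inhibitor, 1% DMSO: [3H]DHT (6.25 nM) reduction to 3α-diol by baculovirus-made AKR1C2 (13.6 nM), pH 7.4 phosphate buffer, 1 mM NADPH, 37 °C for 45 min. Radio-UPLC quantified product versus substrate to give percent inhibition.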

Test [3] has as its target T3, 17β-Hydroxysteroid Dehydrogenase Type 2 Enzyme (17β-HSD2) (Homo sapiens, UniProt P37059).
T3 construct: made in house; host or cells: Sf-9 insect cells (baculovirus)
T3 sequence (P37059 1-387): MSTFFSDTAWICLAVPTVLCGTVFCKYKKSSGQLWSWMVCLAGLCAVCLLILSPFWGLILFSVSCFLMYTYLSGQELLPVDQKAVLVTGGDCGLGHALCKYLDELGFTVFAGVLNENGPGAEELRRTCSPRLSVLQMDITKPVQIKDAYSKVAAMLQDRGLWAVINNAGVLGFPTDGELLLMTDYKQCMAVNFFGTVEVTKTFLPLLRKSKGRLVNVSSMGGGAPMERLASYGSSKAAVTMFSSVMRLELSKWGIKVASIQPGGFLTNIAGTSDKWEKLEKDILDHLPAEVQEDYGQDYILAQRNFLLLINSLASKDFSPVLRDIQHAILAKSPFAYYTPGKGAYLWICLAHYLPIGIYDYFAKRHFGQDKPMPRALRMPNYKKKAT
Put plainly: Inhibition of the 17β-hydroxysteroid dehydrogenase type 2 enzyme, 3H-testosterone conversion. Conditions: inhibitor at 10 μM. In a few lines:
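Single-point screen at 10 μM inhibitor, 1% DMSO: Sf-9-expressed human enzyme (105 nM), NAD 1 mM, ³H-labelled testosterone 56.25 nM, pH 8.5 phosphate/EDTA buffer, 30 min, room temperature. After TCA quench, substrate and product radioactivity quantified by UPLC with scintillation detection; inhibition percent from conversion.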

With `N#CC(=C1CCN(C(=O)N2CCOCC2)CC1)c1cccc2[nH]ncc12` [Compound 45, 2-(1H-indazol-4-yl)-2-(1-(morpholine-4-carbonyl)piperidin-4-ylidene)acetonitrile], in test [1], the inhibition – broadly, the drop in the measured response relative to a control, in per cent – at 0.5 µM came to 103%. Also, the inhibition at 10 µM worked out at 5% in test [2] and 2% in test [3].

As for `N#CC(=C1CCN(C(=O)N2CCn3cncc3C2)CC1)c1ccc(Cl)cc1` [Compound 46, 2-(4-chlorophenyl)-2-(1-(5,6,7,8-tetrahydroimidazo[1,5-a]pyrazine-7-carbonyl)piperidin-4-ylidene)acetonitrile], the inhibition at 0.5 µM in test [1] was 102%. In addition, the inhibition at 10 µM was determined as 8% in test [2] and 11% in test [3].

For `N#CC(=C1CCN(C(=O)N2CCc3sccc3C2)CC1)c1ccc(Cl)cc1` [Compound 47], the inhibition at 0.5 µM in test [1] was found to be 103%. In addition, the results for the inhibition at 10 µM in test [2] and in test [3] were 9% and 20%, respectively.

Turning to `N#CC(=C1CCN(C(=O)N2CCC(O)CC2)CC1)c1cccc2[nH]ncc12` [Compound 48, 2-(1-(4-hydroxypiperidine-1-carbonyl)piperidin-4-ylidene)-2-(1H-indazol-4-yl)acetonitrile], in test [1], the inhibition at 0.5 µM is 100%. The results for the inhibition at 10 µM in test [2] and in test [3] were 0% and 8%, respectively.

For `N#CC(=C1CCN(C(=O)N2CCC(CO)CC2)CC1)c1cccc2[nH]ncc12` [Compound 49, 2-(1-(4-(hydroxymethyl)piperidine-1-carbonyl)piperidin-4-ylidene)-2-(1H-indazol-4-yl)acetonitrile], the inhibition at 0.5 µM in test [1] is 98%. The figures for the inhibition at 10 µM in test [2] and in test [3] were 6% and 22%, respectively.

On to `N#CC(=C1CCN(C(=O)N2CCC(CO)CC2)CC1)c1cc(F)cc(F)c1` [Compound 50, 2-(3,5-difluorophenyl)-2-(1-(4-(hydroxymethyl)piperidine-1-carbonyl)piperidin-4-ylidene)acetonitrile], for which the inhibition at 0.5 µM in test [1] was determined as 97%. Besides, the inhibition at 10 µM was determined as 16% in test [2] and 12% in test [3].

For `N#CC(=C1CCN(C(=O)N2CCc3sccc3C2)CC1)c1cc(F)cc(F)c1` [Compound 51, 2-(3,5-difluorophenyl)-2-(1-(4,5,6,7-tetrahydrothieno[3,2-c]pyridine-5-carbonyl)piperidin-4-ylidene)acetonitrile], in test [1], the inhibition at 0.5 µM was 96%. In addition, the figures for the inhibition at 10 µM in test [2] and in test [3] were 18% and 26%, respectively.

Take `N#CC(=C1CCN(C(=O)N2CCn3cncc3C2)CC1)c1cc(F)cc(F)c1` [Compound 52, 2-(3,5-difluorophenyl)-2-(1-(5,6,7,8-tetrahydroimidazo[1,5-a]pyrazine-7-carbonyl)piperidin-4-ylidene)acetonitrile]: the inhibition at 0.5 µM in test [1] came to 97%. Also, the results for the inhibition at 10 µM in test [2] and in test [3] were 19% and 13%, respectively.

As for `N#CC(=C1CCN(C(=O)N2CCC(CO)CC2)CC1)c1ccc(OC(F)(F)F)cc1` [Compound 53, 2-(1-(4-(hydroxymethyl)piperidine-1-carbonyl)piperidin-4-ylidene)-2-(4-(trifluoromethoxy)phenyl)acetonitrile], the inhibition at 0.5 µM in test [1] turned out to be 97%. Also, the inhibition at 10 µM in test [2] came to 7%; in test [3], 15%.

On to `N#CC(=C1CCN(C(=O)N2CCc3[nH]ncc3C2)CC1)c1ccc(OC(F)(F)F)cc1` [Compound 54, 2-(1-(4,5,6,7-tetrahydro-1H-pyrazolo[4,3-c]pyridine-5-carbonyl)piperidin-4-ylidene)-2-(4-(trifluoromethoxy)phenyl)acetonitrile], for which the inhibition at 0.5 µM in test [1] worked out at 99%. In addition, the inhibition at 10 µM in test [2] came out at 15%; in test [3] it was 20%.

As to `N#CC(=C1CCN(C(=O)N2CCn3cncc3C2)CC1)c1ccc(OC(F)(F)F)cc1` [Compound 55, 2-(1-(5,6,7,8-tetrahydroimidazo[1,5-a]pyrazine-7-carbonyl)piperidin-4-ylidene)-2-(4-(trifluoromethoxy)phenyl)acetonitrile], in test [1], the inhibition at 0.5 µM stood at 97%. The inhibition at 10 µM in test [2] was 3%; in test [3], 7%.

Consider `N#CC(=C1CCN(C(=O)N2CCC(O)CC2)CC1)c1cccc2cn[nH]c12` [Compound 56, 2-(1-(4-hydroxypiperidine-1-carbonyl)piperidin-4-ylidene)-2-(1H-indazol-7-yl)acetonitrile], for which the inhibition at 0.5 µM in test [1] was 86%. Moreover, the results for the inhibition at 10 µM in test [2] and in test [3] were -3% and 3%, respectively.

With `N#CC(=C1CCN(C(=O)N2CCC(O)CC2)CC1)c1ccc(Cl)s1` [Compound 57, 2-(5-chlorothiophen-2-yl)-2-(1-(4-hydroxypiperidine-1-carbonyl)piperidin-4-ylidene)acetonitrile], in test [1], the inhibition at 0.5 µM worked out at 96%. The inhibition at 10 µM in test [2] stood at 13%; in test [3] it was 3%.

Consider `N#CC(=C1CCN(C(=O)N2CCC(O)CC2)CC1)c1cc(F)cc(F)c1` [Compound 58, 2-(3,5-difluorophenyl)-2-(1-(4-hydroxypiperidine-1-carbonyl)piperidin-4-ylidene)acetonitrile], for which, in test [1], the inhibition at 0.5 µM worked out at 93%. For the same compound, the values for the inhibition at 10 µM in test [2] and in test [3] were 6% and 21%, respectively.

Consider `Cn1ncc2cccc(C(C#N)=C3CCN(C(=O)N4CCn5cncc5C4)CC3)c21` [Compound 59, 2-(1-methyl-1H-indazol-7-yl)-2-(1-(5,6,7,8-tetrahydroimidazo[1,5-a]pyrazine-7-carbonyl)piperidin-4-ylidene)acetonitrile], for which the inhibition at 0.5 µM in test [1] worked out at 98%. Moreover, the inhibition at 10 µM in test [2] turned out to be 5%; in test [3], 22%.

With `N#CC(=C1CCN(C(=O)N2CCc3[nH]ncc3C2)CC1)c1cccc2[nH]ncc12` [Compound 60, 2-(1H-indazol-4-yl)-2-(1-(4,5,6,7-tetrahydro-1H-pyrazolo[4,3-c]pyridine-5-carbonyl)piperidin-4-ylidene)acetonitrile], the inhibition at 0.5 µM in test [1] was 98%. Also, the inhibition at 10 µM in test [2] was found to be 9%; in test [3], 29%.

Consider `N#CC(=C1CCN(C(=O)N2CCn3cncc3C2)CC1)c1cccc2[nH]ncc12` [Compound 61, 2-(1H-indazol-4-yl)-2-(1-(5,6,7,8-tetrahydroimidazo[1,5-a]pyrazine-7-carbonyl)piperidin-4-ylidene)acetonitrile], for which the inhibition at 0.5 µM in test [1] was found to be 99%. The inhibition at 10 µM is 7% in test [2] and 30% in test [3].

As to `N#CC(=C1CCN(C(=O)N2CCC(O)CC2)CC1)c1ccc(Cl)cn1` [Compound 62, 2-(5-chloropyridin-2-yl)-2-(1-(4-hydroxypiperidine-1-carbonyl)piperidin-4-ylidene)acetonitrile], the inhibition at 0.5 µM in test [1] stood at 90%. Further, the inhibition at 10 µM is -4% in test [2] and 4% in test [3].

On to `N#CC(=C1CCN(C(=O)N2CCC(CO)CC2)CC1)c1ccc(Cl)s1` [Compound 63, 2-(5-chlorothiophen-2-yl)-2-(1-(4-(hydroxymethyl)piperidine-1-carbonyl)piperidin-4-ylidene)acetonitrile], for which, in test [1], the inhibition at 0.5 µM came to 99%. The values for the inhibition at 10 µM in test [2] and in test [3] were 29% and 22%, respectively.

In the case of `N#CC(=C1CCN(C(=O)N2CCc3sccc3C2)CC1)c1ccc(Cl)s1` [Compound 64, 2-(5-chlorothiophen-2-yl)-2-(1-(4,5,6,7-tetrahydrothieno[3,2-c]pyridine-5-carbonyl)piperidin-4-ylidene)acetonitrile], the inhibition at 0.5 µM in test [1] amounted to 99%. In addition, the inhibition at 10 µM in test [2] was found to be 19%; in test [3], 28%.
